{"source": "patent US20090181086A1", "about": "(priority 2008, published 2009)", "origin": "cited, not measured here", "key": {"platelet MAO-B": {"target": "platelet MAO-B (Homo sapiens, UniProt P27338)", "sequence (P27338 whole entry)": "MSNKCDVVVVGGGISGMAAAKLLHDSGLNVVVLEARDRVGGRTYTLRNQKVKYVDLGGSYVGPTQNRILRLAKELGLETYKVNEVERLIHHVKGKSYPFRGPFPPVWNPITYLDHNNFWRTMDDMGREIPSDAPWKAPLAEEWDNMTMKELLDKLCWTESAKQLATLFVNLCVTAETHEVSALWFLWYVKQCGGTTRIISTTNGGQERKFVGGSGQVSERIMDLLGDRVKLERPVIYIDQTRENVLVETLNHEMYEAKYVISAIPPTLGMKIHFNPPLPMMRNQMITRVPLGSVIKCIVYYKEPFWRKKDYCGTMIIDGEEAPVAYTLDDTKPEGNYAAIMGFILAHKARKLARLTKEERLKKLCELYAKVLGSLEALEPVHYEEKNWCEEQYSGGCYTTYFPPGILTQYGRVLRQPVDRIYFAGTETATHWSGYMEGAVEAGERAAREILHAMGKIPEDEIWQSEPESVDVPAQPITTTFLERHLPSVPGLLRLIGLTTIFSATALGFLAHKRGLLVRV"}, "CYP1A2": {"target": "CYP1A2 (Homo sapiens, UniProt P05177)", "sequence (P05177 whole entry, species assumed)": "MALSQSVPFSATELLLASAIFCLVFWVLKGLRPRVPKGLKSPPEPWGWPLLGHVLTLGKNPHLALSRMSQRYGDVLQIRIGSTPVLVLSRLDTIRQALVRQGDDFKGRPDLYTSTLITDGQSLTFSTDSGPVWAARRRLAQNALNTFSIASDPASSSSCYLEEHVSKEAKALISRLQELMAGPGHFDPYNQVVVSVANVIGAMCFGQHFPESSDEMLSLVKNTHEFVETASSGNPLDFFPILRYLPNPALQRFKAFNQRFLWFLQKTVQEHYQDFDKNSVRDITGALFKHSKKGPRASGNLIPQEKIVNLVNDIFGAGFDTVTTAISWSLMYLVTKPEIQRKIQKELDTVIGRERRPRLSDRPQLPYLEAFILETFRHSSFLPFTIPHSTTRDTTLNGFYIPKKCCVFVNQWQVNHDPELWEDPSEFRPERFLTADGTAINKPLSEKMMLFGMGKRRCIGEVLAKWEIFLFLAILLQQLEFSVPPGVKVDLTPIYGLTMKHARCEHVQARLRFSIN", "conditions": "in vitro"}, "[1]": {"system": "monoamine oxidase type B (MAO-B)", "conditions": "ex vivo, brain, liver and intestinal tissues"}, "human albumin": {"target": "human albumin (Homo sapiens, UniProt P02768)", "sequence (P02768 25-609)": "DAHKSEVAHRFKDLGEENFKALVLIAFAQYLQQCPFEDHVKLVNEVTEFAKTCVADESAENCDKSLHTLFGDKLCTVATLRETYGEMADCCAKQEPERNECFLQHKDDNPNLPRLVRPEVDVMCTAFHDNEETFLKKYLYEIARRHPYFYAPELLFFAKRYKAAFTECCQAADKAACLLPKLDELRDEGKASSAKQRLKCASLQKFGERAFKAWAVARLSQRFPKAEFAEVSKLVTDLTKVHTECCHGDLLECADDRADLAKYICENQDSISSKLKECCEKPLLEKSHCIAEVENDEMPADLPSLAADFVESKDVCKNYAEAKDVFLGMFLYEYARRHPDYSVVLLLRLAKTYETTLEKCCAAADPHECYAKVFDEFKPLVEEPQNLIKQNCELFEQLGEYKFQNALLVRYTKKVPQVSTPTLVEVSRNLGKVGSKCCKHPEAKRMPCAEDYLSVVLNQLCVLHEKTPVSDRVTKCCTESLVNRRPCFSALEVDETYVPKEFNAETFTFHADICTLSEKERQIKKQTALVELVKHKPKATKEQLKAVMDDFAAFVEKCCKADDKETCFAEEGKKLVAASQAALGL", "conditions": "concentration range of 1-100 ng/mL"}, "[2]": {"conditions": "oral 14C-labeled rasagiline, over 7 days"}}, "note": "Like-named read-outs stand apart in the source and are kept apart here."}
{"smiles": "C#CCN[C@@H]1CCc2ccccc21", "note": "[rasagiline, R(+)-N-propargyl-1-aminoindan]", "values": [{"measurement": "MAO-B inhibition", "setting": "platelet MAO-B; 3 days after daily dosing at 2 mg/day, maintained 3 days post-dose", "value": "Over 90%"}, {"measurement": "MAO-B inhibition", "setting": "platelet MAO-B; after a single rasagiline dose of 1 mg/day", "value": "25-35%"}, {"measurement": "MAO-B inhibition", "setting": "platelet MAO-B; after a single rasagiline dose of 2 mg/day", "value": "more than 55%"}, {"measurement": "duration of platelet MAO-B inhibition after last dose", "setting": "platelet MAO-B; human, in vivo", "value": "at least 1 week"}, {"measurement": "MAO-B inhibition, in words", "setting": "platelet MAO-B; multiple doses of 0.5, 1 and 2 mg per day", "value": "complete MAO-B inhibition"}, {"measurement": "MAO-B inhibition in platelets, in words", "setting": "platelet MAO-B; recommended therapeutic dose", "value": "potent and irreversible inhibitor of MAO-B"}, {"measurement": "pharmacokinetics versus dose, in words", "setting": "doses over the range of 1-10 mg", "value": "linear"}, {"measurement": "absolute bioavailability", "setting": "human, in vivo", "value": "about 36%"}, {"measurement": "effect of food on Tmax, in words", "setting": "human, in vivo", "value": "does not affect"}, {"measurement": "excreted as unchanged drug in urine", "setting": "human, in vivo", "value": "Less than 1%"}, {"measurement": "mean steady-state half life", "setting": "human, in vivo", "value": 3, "unit": "h"}, {"measurement": "mean volume of distribution at steady-state", "setting": "human, in vivo", "value": 87, "unit": "L"}, {"measurement": "elimination via feces", "setting": "[2]", "value": "7 % of total dose"}, {"measurement": "elimination via urine", "setting": "[2]", "value": "62 % of total dose"}, {"measurement": "total calculated recovery", "setting": "oral 14C-labeled rasagiline, over a period of 38 days", "value": "84 % of the dose"}, {"measurement": "decrease of Cmax", "setting": "taken with a high fat meal", "value": "approximately 60%"}, {"measurement": "decrease of exposure (AUC)", "setting": "taken with a high fat meal", "value": "~20", "unit": "%"}, {"measurement": "isoenzyme involved in rasagiline metabolism, in words", "setting": "CYP1A2", "value": "CYP1A2 being the major isoenzyme involved"}, {"measurement": "Plasma protein binding", "setting": "plasma protein", "value": "88-94%"}, {"measurement": "MAO-B inhibition, in words", "setting": "[1]", "value": "potent, irreversible monoamine oxidase type B (MAO-B) selective inhibitor"}, {"measurement": "mean extent of binding to human albumin", "setting": "human albumin", "value": "61-63%"}]}
